The text below walks through data of US8097628B2, “Compounds” (Glaxo Group Limited, priority 2008, dated 2012).

≈ marks a conversion by molar mass, not a printed value.

The subject of assay [1] is Mycobacterium tuberculosis H37Rv. Kind of assay: Mycobacterium tuberculosis H37Rv Inhibition Assay. The class given is cell-based. The note with it: ATCC 25618 / H37Rv, H37Rv strain (ATCC25618), Middlebrook 7H9, resazurin fluorescence, read-out: MtB MIC. On the technique in general: The colour change of resazurin is a common sign of viable cells or microbes.
Assay [2] concerns E. coli 120 AcrAB-. Kind of assay: Antimicrobial Activity Assay, whole-cell broth microdilution (CLSI M7-A7). The class given is cell-based. The note with it: Escherichia coli, read-out: lowest MIC. As for the experimental part:
Whole-cell antimicrobial activity was determined by broth microdilution using the Clinical Laboratory Standards Institute (CLSI) recommended procedure, Document M7-A7, “Methods for Dilution Susceptibility Tests for Bacteria that Grow Aerobically”.
In addition, compounds were evaluated against a panel of Gram-negative organisms including Haemophilus influenzae, Moraxella catarrhalis, Escherichia coli,
The minimum inhibitory concentration (MIC) was determined as the lowest concentration of compound that inhibited visible growth. A mirror reader was used to assist in determining the MIC endpoint.
For orientation: Broth dilution looks for growth in wells or tubes with falling amounts of substance.

For `Cc1cc(CNC2CCN(C[C@@H]3Cn4c(=O)ccc5ccc(=O)n3c54)CC2)cnc1C#N` [Example 32, 5-{[(1-{[(1R)-4,9-dioxo-1,2-dihydro-4H,9H-imidazo[1,2,3-ij]-1,8-naphthyridin-1-yl]methyl}-4-piperidinyl)amino]methyl}-3-methyl-2-pyridinecarbonitrile], the MIC in assay [1] worked out at 0.538 µg/mL (≈ 1.25 µM); in assay [2] it was 4 µg/mL (≈ 9.29 µM).

Turning to `Cc1cc(CNC2CCN(C[C@@H]3Cn4c(=O)ccc5ccc(=O)n3c54)CC2)ncc1Cl.Cl` [Example 7, (1R)-1-[(4-{[(5-chloro-4-methyl-2-pyridinyl)methyl]amino}-1-piperidinyl)methyl]-1,2-dihydro-4H,9H-imidazo[1,2,3-ij]-1,8-naphthyridine-4,9-dione hydrochloride], the MIC in assay [1] worked out at 0.3 µg/mL.

For the compound `Cc1ncc(CNC2CCN(C[C@@H]3Cn4c(=O)cnc5ccc(=O)n3c54)CC2)cc1Cl.Cl` [Example 8, (1R)-1-[(4-{[(5-chloro-6-methyl-3-pyridinyl)methyl]amino}-1-piperidinyl)methyl]-1,2-dihydro-3H,8H-2a,5,8a-triazaacenaphthylene-3,8-dione hydrochloride], in assay [1], the MIC is 0.08 µg/mL.

In general, MIC refers to the smallest concentration in the dilution series that meets the test's criterion for growth inhibition.
